Source: patent US20240051968A1, “METHODS FOR TREATING SPINOCEREBELLAR ATAXIA TYPE 3” (PTC Therapeutics, Inc., priority 2021, published 2024)
pIC50: −log10 of the molar value.

Assays:
[1] = tested on: Total ATXN3 (tATXN3) protein; test: Endogenous Total ATXN3 (tATXN3) Protein Assay (MSD immunoassay of cell lysates); type: cell-based; settings: cells incubated with compound 48 h; 7-point concentration curve; MSD detection in cell lysate
Procedure: Endogenous Total ATXN3 (tATXN3) Protein Assay
Meso Scale Discovery (MSD) 96-well or 384-well plates were coated overnight at 4° C. with Ataxin 3 mouse monoclonal antibody (Invitrogen, MA3-082) at a concentration of 0.5 μg/mL in PBS (30 μL per well). Plates were then washed three times with 300 μL wash buffer (0.05% TWEEN®-20, polyethylene glycol sorbitan monolaurate, in PBS) and blocked (Meso Scale Diagnostics, R93BA-1; 5% BSA in PBS) for 2 h at room temperature with rotational shaking and then washed three times with wash buffer.
(§1) Test compounds were serially diluted 3.16-fold in 100% DMSO to generate a 7-point concentration curve. Aliquots of 0.5 μL of diluted compounds were transferred to a 96-well flat bottom plate by a liquid handler. An aliquot of 0.5 μL DMSO was also transferred to separate wells and used as controls. Duplicate samples were set up for each compound concentration and for the DMSO control.
Cells were thawed and incubated in cell culture media (DMEM, 10% FBS, and 1% antibiotic cocktail) for 72 h. Cells were trypsinized, counted, and re-suspended to a concentration of 100,000 cells/mL in cell culture media. A 100 μL aliquot of the cell suspensions were plated at 10,000 cells per well in the compound containing 96 well microtiter plate and incubated for in a cell culture incubator (37° C., 5% CO2, 100% relative humidity). After 48 h, the medium was removed and 50-100 μL of lysis buffer (Meso Scale Diagnostics, R60TX-2) containing 1× halt protease inhibitor cocktail of (Thermo Scientific, Halt™ Protease Inhibitor Cocktail, 78430) per well was added to cells to provide a “cell lysate”. The plate was placed on a shaker at 4° C. for 30 minutes, then stored at −80° C.
Cell lysate samples (25 μL) were transferred to the antibody-coated MSD plate and incubated overnight at 4° C. After removal of the lysates, the plate was washed three times with wash buffer, and 25 μL of Ataxin 3 recombinant rabbit monoclonal antibody (Invitrogen, #702788) secondary antibody (diluted to 0.25 μg/mL in 0.05% TWEEN®-20 in blocking buffer) was added to each well and incubated with shaking for 1-2 h at room temperature. Following incubation with the secondary antibody, the wells were rinsed with wash buffer and then […] Anti Rabbit Antibody Goat SULFO-TAG Labeled (Meso Scale Diagnostics, R32AB-1) detecting antibody (diluted to 0.25 μg/mL in 0.05% TWEEN®-20 in blocking buffer) was added to each well and incubated with shaking for 1 h at room temperature. After rinsing three times with wash buffer, 150 μL of Read Buffer T with surfactant (tris-based buffer containing tripropylamine, Meso Scale Diagnostics, R92TC-1) were added to each empty well, and the plate was imaged on a SI 6000 imager (MSD) according to manufacturers' instructions provided for 96- or 384-well plates.

ATXN3 pre-mRNA = test: RT-qPCR Assay to Quantify Exon 4 Skipping in ATXN3 pre-mRNA in Cells; type: cell-based; settings: cells incubated with compound 24 h, 7-point concentration curve, GAPDH control
Procedure: as §1, with “RT-qPCR Assay to Quantify Exon 4 Skipping in ATXN3 pre-mRNA in Cells Test” for “Test”
Cells were thawed and incubated in cell culture media (DMEM, 10% FBS, and 1% antibiotic cocktail) for 72 h. Cells were trypsinized, counted, and re-suspended to a concentration of 100,000 cells/mL in cell culture media. A 100 μL aliquot of the cell suspensions were plated at 10,000 cells per well in the compound containing 96 well microtiter plate and incubated for in a cell culture incubator (37° C., 5% CO2, 100% relative humidity).
After 24 h, media was aspirated from the cells and 50 μL of the RCL2 lysis buffer (10 mM Tris-HCL pH 7.4, 150 mM NaCl, 0.33% IGEPAL® CA-630) was added to each well and incubated at room temperature for 1 min. Chilled nuclease free water (50 μL per well) was added and the plates were immediately transferred on ice. After 1 min on ice, plates were frozen at −80° C. overnight.
Preparation of RT-qPCR Reaction Mixture:
An aliquot of 2 μL/well of the cell lysates was transferred using the liquid handler to the Armadillo 384-Well PCR plate containing 8 μL/well of the RT-qPCR reaction mixture that was prepared as detailed above. The plates were then sealed with MicroAmp™ Optical Adhesive Film followed by spinning down for 1 min and placed in the CFX384 thermocycler (BioRad).
The RT-qPCR was carried out at the following temperatures for the indicated time: • Step 1: 48° C. (30 min) • Step 2: 95° C. (10 min) • Step 3: 95° C. (15 sec) • Step 4: 60° C. (1 min); then, repeated Steps 3 and 4 for a total of 40 cycles.
The percent exon 4 skipping was calculated for each dose of compound treatment using Equations 1 and 2.
Data were fit to a dose response curve and the IC50 was interpolated using XLfit® statistical and curve fitting package.
An IC50 value between >2.0 μM and ≤3.0 μM is indicated by one star (*). […] IC50 value between >0.5 μM and ≤1.0 μM is indicated by four stars (****). An IC50 value ≤0.5 μM is indicated by five stars (*****).

Structure (SMILES) | pIC50 [1] | pIC50 (ATXN3 pre-mRNA) | IC50, exon 4 skipping in ATXN3 pre-mRNA (ATXN3 pre-mRNA)
N[C@@H](COC(F)(F)F)Cc1sc2c(NCc3nccs3)cc(Cl)nc2c1Br [Cpd 64, 2-[(2R)-2-amino-3-(trifluoromethoxy)propyl]-3-bromo-5-chloro-N-[(1,3-thiazol-2-yl)methyl]thieno[3,2-b]pyridin-7-amine] | 6.00 to 6.30 | 6.00 to 6.30 | 
CC[C@H](N)Cc1sc2c(NCc3cccs3)cc(Cl)nc2c1Br [Cpd 73, 2-[(2S)-2-aminobutyl]-3-bromo-5-chloro-N-[(thiophen-2-yl)methyl]thieno[3,2-b]pyridin-7-amine] | ≥ 6.30 | ≥ 6.30 | 
N[C@@H](CCF)Cc1sc2c(NCc3cccs3)cc(Cl)nc2c1Br [Cpd 74, 2-[(2S)-2-amino-4-fluorobutyl]-3-bromo-5-chloro-N-[(thiophen-2-yl)methyl]thieno[3,2-b]pyridin-7-amine] | ≥ 6.30 | ≥ 6.30 | 
N[C@@H](CF)Cc1sc2c(NCc3cccs3)cc(Cl)nc2c1Br [Cpd 76, 2-[(2R)-2-amino-3-fluoropropyl]-3-bromo-5-chloro-N-[(thiophen-2-yl)methyl]thieno[3,2-b]pyridin-7-amine] | ≥ 6.30 | ≥ 6.30 | 
Cc1c(C[C@@H](N)CF)sc2c(NCc3ccco3)cc(Cl)nc12 [Cpd 81, 2-[(2R)-2-amino-3-fluoropropyl]-5-chloro-N-[(furan-2-yl)methyl]-3-methylthieno[3,2-b]pyridin-7-amine] | ≥ 6.30 | ≥ 6.30 | 
CC[C@H](N)Cc1sc2c(NCc3cccs3)cc(Cl)nc2c1Cl [Cpd 83, 2-[(2S)-2-aminobutyl]-3,5-dichloro-N-[(thiophen-2-yl)methyl]thieno[3,2-b]pyridin-7-amine] | ≥ 6.30 | ≥ 6.30 | 
N[C@@H](CF)Cc1sc2c(NCc3cccs3)cc(Cl)nc2c1Cl [Cpd 84, 2-[(2R)-2-amino-3-fluoropropyl]-3,5-dichloro-N-[(thiophen-2-yl)methyl]thieno[3,2-b]pyridin-7-amine] | ≥ 6.30 | ≥ 6.30 | 
Cc1c(C[C@@H](N)CF)sc2c(NCc3cccs3)cc(Cl)nc12 [Cpd 91, 2-[(2R)-2-amino-3-fluoropropyl]-5-chloro-3-methyl-N-[(thiophen-2-yl)methyl]thieno[3,2-b]pyridin-7-amine] | 5.82 to 6.00 | 5.52 to 5.70 | 
Cc1c(C[C@@H](N)CCF)sc2c(NCc3cccs3)cc(Cl)nc12 [Cpd 92, 2-[(2S)-2-amino-4-fluorobutyl]-5-chloro-3-methyl-N-[(thiophen-2-yl)methyl]thieno[3,2-b]pyridin-7-amine] | ≥ 6.30 | ≥ 6.30 | 
N[C@@H](CCF)Cc1sc2c(NCc3ccco3)cc(Cl)nc2c1Cl [Cpd 93, 2-[(2S)-2-amino-4-fluorobutyl]-3,5-dichloro-N-[(furan-2-yl)methyl]thieno[3,2-b]pyridin-7-amine] | ≥ 6.30 | ≥ 6.30 | 
N[C@@H](CF)Cc1sc2c(NCc3ccco3)cc(Cl)nc2c1Cl [Cpd 94, 2-[(2R)-2-amino-3-fluoropropyl]-3,5-dichloro-N-[(furan-2-yl)methyl]thieno[3,2-b]pyridin-7-amine] | ≥ 6.30 | ≥ 6.30 | 
Cc1c(C[C@@H](N)CCF)sc2c(NCc3ccco3)cc(Cl)nc12 [Cpd 95, 2-[(2S)-2-amino-4-fluorobutyl]-5-chloro-N-[(furan-2-yl)methyl]-3-methylthieno[3,2-b]pyridin-7-amine] | ≥ 6.30 | ≥ 6.30 | 
N[C@@H](CCF)Cc1sc2c(NCc3ccco3)cc(Cl)nc2c1Br [Cpd 97, 2-[(2S)-2-amino-4-fluorobutyl]-3-bromo-5-chloro-N-[(furan-2-yl)methyl]thieno[3,2-b]pyridin-7-amine] | ≥ 6.30 | ≥ 6.30 | 
N#CC[C@H](N)Cc1sc2c(NCc3ccco3)cc(Cl)nc2c1Br [Cpd 103, (3S)-3-amino-4-(3-bromo-5-chloro-7-{[(furan-2-yl)methyl]amino}thieno[3,2-b]pyridin-2-yl)butanenitrile] | ≥ 6.30 | ≥ 6.30 | 
CSC[C@H](N)Cc1sc2c(NCc3ccco3)cc(Cl)nc2c1C [Cpd 104, 2-[(2R)-2-amino-3-(methylsulfanyl)propyl]-5-chloro-N-[(furan-2-yl)methyl]-3-methylthieno[3,2-b]pyridin-7-amine] | ≥ 6.30 | ≥ 6.30 | 
Cc1c(C[C@@H](N)CC#N)sc2c(NCc3cccs3)cc(Cl)nc12 [Cpd 105, (3S)-3-amino-4-(5-chloro-3-methyl-7-{[(thiophen-2-yl)methyl]amino}thieno[3,2-b]pyridin-2-yl)butanenitrile] | ≥ 6.30 | ≥ 6.30 | 
N#CC[C@H](N)Cc1sc2c(NCc3cccs3)cc(Cl)nc2c1Cl [Cpd 106, (3S)-3-amino-4-(3,5-dichloro-7-{[(thiophen-2-yl)methyl]amino}thieno[3,2-b]pyridin-2-yl)butanenitrile] | ≥ 6.30 | ≥ 6.30 | 
N[C@H](Cc1sc2c(NCc3cccs3)cc(Cl)nc2c1Br)CC(F)F [Cpd 107, 2-[(2S)-2-amino-4,4-difluorobutyl]-3-bromo-5-chloro-N-[(thiophen-2-yl)methyl]thieno[3,2-b]pyridin-7-amine] | 5.82 to 6.00 |  | inactive
Cc1c(C[C@@H](N)CS(C)(=O)=O)sc2c(NCc3ccco3)cc(Cl)nc12 [Cpd 108, 2-[(2R)-2-amino-3-(methanesulfonyl)propyl]-5-chloro-N-[(furan-2-yl)methyl]-3-methylthieno[3,2-b]pyridin-7-amine] | ≥ 6.30 | ≥ 6.30 | 
C[C@H](N)Cc1sc2c(NCc3ccco3)cc(Cl)nc2c1C#N [Cpd 109, 2-[(2S)-2-aminopropyl]-5-chloro-7-{[(furan-2-yl)methyl]amino}thieno[3,2-b]pyridine-3-carbonitrile] | ≥ 6.30 | ≥ 6.30 | 
CS(=O)(=O)C[C@H](N)Cc1sc2c(NCc3ccco3)cc(Cl)nc2c1Cl [Cpd 113, 2-[(2R)-2-amino-3-(methanesulfonyl)propyl]-3,5-dichloro-N-[(furan-2-yl)methyl]thieno[3,2-b]pyridin-7-amine] | ≥ 6.30 | ≥ 6.30 | 
CSC[C@H](N)Cc1sc2c(NCc3ccco3)cc(Cl)nc2c1Cl [Cpd 114, 2-[(2R)-2-amino-3-(methylsulfanyl)propyl]-3,5-dichloro-N-[(furan-2-yl)methyl]thieno[3,2-b]pyridin-7-amine] | ≥ 6.30 | ≥ 6.30 | 
Cc1c(C[C@@H](N)C(=O)O)sc2c(NCc3ccco3)cc(Cl)nc12 [Cpd 115, 3-(5-chloro-7-{[(furan-2-yl)methyl]amino}-3-methylthieno[3,2-b]pyridin-2-yl)-D-alanine] | ≥ 6.30 | ≥ 6.30 | 
